{
  "source": "patent US8501770B2",
  "about": "(ArQule, Inc., priority 2009, dated 2013)",
  "note": "pIC50: −log10 of the molar value. Counter-ions that a name gives are not always drawn.",
  "data": [
    {"molecular_target": "Full-length inactive AKT1 (Homo sapiens, UniProt P31749)", "sequence (P31749 whole entry)": "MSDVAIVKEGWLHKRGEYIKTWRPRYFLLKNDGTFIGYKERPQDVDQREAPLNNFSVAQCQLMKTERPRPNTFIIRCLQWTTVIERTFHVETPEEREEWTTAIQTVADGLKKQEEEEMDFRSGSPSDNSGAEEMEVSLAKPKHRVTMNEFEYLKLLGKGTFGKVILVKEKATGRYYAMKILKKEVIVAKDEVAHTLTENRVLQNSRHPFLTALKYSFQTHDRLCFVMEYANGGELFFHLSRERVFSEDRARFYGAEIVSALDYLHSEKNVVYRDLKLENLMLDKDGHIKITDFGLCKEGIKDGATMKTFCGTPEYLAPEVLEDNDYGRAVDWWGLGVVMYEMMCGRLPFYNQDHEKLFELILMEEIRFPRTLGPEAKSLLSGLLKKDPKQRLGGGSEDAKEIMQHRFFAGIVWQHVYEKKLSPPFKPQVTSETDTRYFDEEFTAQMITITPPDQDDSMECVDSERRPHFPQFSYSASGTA", "experiment": "Inactive Akt Alpha Screen Assay", "assay_type": "biochemical", "details": "values not marked with \"*\": AlphaScreen assay; read-out: Akt1 IC50, (AlphaScreen)", "outline": "(§1)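 AlphaScreen read-out (excitation 640 nm, emission 570 nm) after 90 min incubation at room temperature in the dark. Signal comes from crosstide phosphorylation by AKT1, which was activated by added PDK1, MAPKAPK2, ATP and lipid vesicles, captured via phospho-AKT substrate antibody and streptavidin beads.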", "values": [
      {"compound": "Nc1ncccc1-c1nc2cc(Br)cnc2n1-c1ccc(CNS(=O)(=O)c2ccc(F)c(Cl)c2)cc1", "note": "[Example 150, N-{4-[2-(2-aminopyridin-3-yl)-6-bromo-3H-imidazo[4,5-b]pyridin-3-yl]benzyl}-3-chloro-4-fluorobenzenesulfonamide]", "pIC50": 5.64},
      {"compound": "Nc1ncccc1-c1nc2cc(-c3cncnc3)cnc2n1-c1ccc(CNC(=O)c2ccccc2)cc1", "note": "[Example 142, N-{4-[2-(2-aminopyridin-3-yl)-6-pyrimidin-5-yl-3H-imidazo[4,5-b]pyridin-3-yl]benzyl}benzamide]", "pIC50": 6.72},
      {"compound": "Nc1ncccc1-c1nc2cccnc2n1-c1ccc(S(=O)(=O)N2CCCCC2)cc1", "note": "[Example 38]", "pIC50": 5.37},
      {"compound": "Nc1ncccc1-c1nc2cc(-c3ccsc3)cnc2n1-c1ccc(CNC(=O)c2ccccc2)cc1", "note": "[Example 137, N-{4-[2-(2-aminopyridin-3-yl)-6-thiophen-3-yl-3H-imidazo[4,5-b]pyridin-3-yl]benzyl}benzamide]", "pIC50": 7.30},
      {"compound": "CC(=O)Nc1ccccc1C(=O)NCc1ccc(-n2c(-c3cccnc3N)nc3cccnc32)cc1", "note": "[Example 43]", "pIC50": 5.85},
      {"compound": "Nc1ccc(-n2c(-c3cccnc3N)nc3cccnc32)cc1", "note": "[Example 106, hydrochloride]", "pIC50": 5.60},
      {"compound": "Cc1ccc2nc(NC(=O)Cc3ccc(-n4c(-c5cccnc5N)nc5cccnc54)cc3)sc2c1", "note": "[Example 121, hydrochloride]", "pIC50": 6.80}
    ]},
    {"molecular_target": "Full-length inactive AKT1 (Homo sapiens, UniProt P31749)", "experiment": "Inactive Akt Alpha Screen Assay", "assay_type": "biochemical", "details": "values not marked with \"*\"; read-out: Akt1 IC50, (AlphaScreen)", "outline": "as §1", "values": [
      {"compound": "Nc1ncccc1-c1nc2ccc(-c3cccc(NS(=O)(=O)C4CC4)c3)nc2n1-c1ccc(C2(N)CCC2)cc1", "note": "[Example 406, N-(3-{3-[4-(1-aminocyclobutyl)phenyl]-2-(2-aminopyridin-3-yl)-3H-imidazo[4,5-b]pyridin-5-yl}phenyl)cyclopropanesulfonamide]", "pIC50": 8.59},
      {"compound": "N#Cc1ccc(S(=O)(=O)NCc2ccc(-n3c(-c4cccnc4N)nc4cc(Br)cnc43)cc2)cc1", "note": "[Example 165, N-{4-[2-(2-aminopyridin-3-yl)-6-bromo-3H-imidazo[4,5-b]pyridin-3-yl]benzyl}-4-cyanobenzenesulfonamide]", "pIC50": 5.68},
      {"compound": "Nc1ncc(-c2ccc3nc(-c4cccnc4N)n(-c4ccc(CNC(=O)c5cccc(F)c5)cc4)c3n2)cn1", "note": "[Example 306, N-(4-(2-(2-aminopyridin-3-yl)-5-(2-aminopyrimidin-5-yl)-3H-imidazo[4,5-b]pyridin-3-yl)benzyl)-3-fluorobenzamide]", "pIC50": 7.92},
      {"compound": "CC(=O)Nc1cccc(C(=O)NCc2ccc(-n3c(-c4cccnc4N)nc4cc(C)c(C)nc43)cc2)c1", "note": "[Example 347, 3-acetamido-N-(4-(2-(2-aminopyridin-3-yl)-5,6-dimethyl-3H-imidazo[4,5-b]pyridin-3-yl)benzyl)benzamide]", "pIC50": 7.27},
      {"compound": "Nc1ncccc1-c1nc2cc(Br)cnc2n1-c1ccc(CNS(=O)(=O)c2c(F)cccc2F)cc1", "note": "[Example 159, N-{4-[2-(2-aminopyridin-3-yl)-6-bromo-3H-imidazo[4,5-b]pyridin-3-yl]benzyl}-2,6-difluorobenzenesulfonamide]", "pIC50": 6.70},
      {"compound": "Nc1ncccc1-c1nc2ccc(Cl)nc2n1-c1ccc(CNC(=O)c2cccc(F)c2)cc1", "note": "[Example 203, N-(4-(2-(2-aminopyridin-3-yl)-5-chloro-3H-imidazo[4,5-b]pyridin-3-yl)benzyl)-3-fluorobenzamide]", "pIC50": 7.09},
      {"compound": "CC(=O)Nc1cccc(NC(=O)Cc2ccc(-n3c(-c4cccnc4N)nc4cc(C)cnc43)cc2)c1", "note": "[Example 343, N-(3-acetamidophenyl)-2-(4-(2-(2-aminopyridin-3-yl)-6-methyl-3H-imidazo[4,5-b]pyridin-3-yl)phenyl)acetamide]", "pIC50": 6.96},
      {"compound": "Nc1ncccc1-c1nc2cc(F)cnc2n1-c1ccc(CC(=O)Nc2ccccc2)cc1", "note": "[Example 234, 2-(4-(2-(2-aminopyridin-3-yl)-6-fluoro-3H-imidazo[4,5-b]pyridin-3-yl)phenyl)-N-phenylacetamide]", "pIC50": 7.28},
      {"compound": "Cn1cccc1C(=O)NCc1ccc(-n2c(-c3cccnc3N)nc3cc(-c4cccnc4)cnc32)cc1", "note": "[Example 252, N-(4-(2-(2-aminopyridin-3-yl)-6-(pyridin-3-yl)-3H-imidazo[4,5-b]pyridin-3-yl)benzyl)-1-methyl-1H-pyrrole-2-carboxamide]", "pIC50": 6.77}
    ]}
  ]
}
